Data on 45 compounds can be found in the Kinase Knowledgebase extract (Sharma et al. 2016).

Chain of ROCK2 (human) (O75116 whole entry, looked up): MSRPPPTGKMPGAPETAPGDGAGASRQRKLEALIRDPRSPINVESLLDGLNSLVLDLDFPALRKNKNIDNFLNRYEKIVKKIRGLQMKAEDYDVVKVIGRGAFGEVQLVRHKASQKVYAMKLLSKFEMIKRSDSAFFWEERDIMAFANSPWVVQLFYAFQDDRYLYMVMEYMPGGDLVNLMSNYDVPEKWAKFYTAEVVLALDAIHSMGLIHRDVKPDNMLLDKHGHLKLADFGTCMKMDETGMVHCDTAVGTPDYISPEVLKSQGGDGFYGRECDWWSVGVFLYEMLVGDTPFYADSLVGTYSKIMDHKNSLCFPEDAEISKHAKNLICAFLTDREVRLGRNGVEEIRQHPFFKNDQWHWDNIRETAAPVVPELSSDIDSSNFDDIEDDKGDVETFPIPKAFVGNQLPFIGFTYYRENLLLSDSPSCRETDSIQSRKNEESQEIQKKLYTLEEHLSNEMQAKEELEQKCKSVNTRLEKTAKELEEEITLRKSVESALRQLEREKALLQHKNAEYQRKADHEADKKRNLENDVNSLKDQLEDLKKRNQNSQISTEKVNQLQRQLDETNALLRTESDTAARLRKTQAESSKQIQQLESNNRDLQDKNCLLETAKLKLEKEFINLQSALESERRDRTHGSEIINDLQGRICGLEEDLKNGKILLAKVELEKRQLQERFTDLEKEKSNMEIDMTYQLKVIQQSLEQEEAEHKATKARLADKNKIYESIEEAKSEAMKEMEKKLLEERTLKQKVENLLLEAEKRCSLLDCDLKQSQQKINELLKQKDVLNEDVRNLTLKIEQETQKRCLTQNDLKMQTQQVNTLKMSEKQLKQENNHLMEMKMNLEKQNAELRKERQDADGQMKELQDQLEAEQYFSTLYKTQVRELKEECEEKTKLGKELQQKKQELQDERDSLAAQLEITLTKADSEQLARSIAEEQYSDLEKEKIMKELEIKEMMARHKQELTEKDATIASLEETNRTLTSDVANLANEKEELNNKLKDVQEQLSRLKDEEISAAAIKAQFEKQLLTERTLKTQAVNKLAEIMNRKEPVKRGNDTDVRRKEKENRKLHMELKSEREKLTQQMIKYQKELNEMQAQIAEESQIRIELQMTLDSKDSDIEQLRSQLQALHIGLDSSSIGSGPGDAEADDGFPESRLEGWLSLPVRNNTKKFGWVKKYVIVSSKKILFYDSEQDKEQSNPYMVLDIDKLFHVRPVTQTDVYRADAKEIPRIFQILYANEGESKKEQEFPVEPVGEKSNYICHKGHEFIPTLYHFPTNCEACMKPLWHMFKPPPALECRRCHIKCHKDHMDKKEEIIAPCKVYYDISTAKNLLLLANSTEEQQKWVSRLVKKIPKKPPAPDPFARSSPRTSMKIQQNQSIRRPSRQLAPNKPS

This experiment concerns the target ROCK2 (human) (UniProt O75116). In words: Inhibition of ROCK2 Kinase Activity.
A word on the IC50: it is the concentration that inhibits the measured activity by half. Higher therefore signals a need for much substance. Compound `COc1cc(CC(=O)N2CCCC2C(N)c2ccc(C(=O)Nc3ccncc3)cc2)cc(OC)c1OC` (stereo not given) yielded an IC50 of 500 to 5000 nM.

`CC(=O)NCC(N)c1ccc(C(=O)Nc2ccncc2)cc1` (stereo not given) gave an IC50 of 500 to 5000 nM.

Take `CN(CC(N)c1ccc(C(=O)Nc2ccncc2)cc1)C(=O)Cc1cccc(F)c1F` (stereo not given): the IC50 fell in the range of 500 to 5000 nM.

The compound `NC(CC(=O)NC1CCCCC1)c1ccc(C(=O)Nc2ccncc2)cc1` (stereo not given) registered an IC50 of 50 to 500 nM.

For the compound `NC(c1ccc(C(=O)Nc2ccncc2)cc1)C1CCCN1C(=O)C1(c2cccs2)CC1` (stereo not given), the IC50 was in the range of 500 to 5000 nM.

As for `NC(CC(=O)NCc1ccc(C(F)(F)F)c(F)c1)c1ccc(C(=O)Nc2ccncc2)cc1` (stereo not given), the IC50 fell in the range of 50 to 500 nM.

In turn, `CC[C@@H](NC(=O)CC(N)c1ccc(C(=O)Nc2ccncc2)cc1)c1ccccc1` (stereo not given in full) yielded an IC50 of 50 to 500 nM.

`NC(c1ccc(C(=O)Nc2ccncc2)cc1)C1CCCN1C(=O)C1(c2ccc(Cl)c(Cl)c2)CCC1` (stereo not given) displayed an IC50 of 500 to 5000 nM.

`COc1cc(Br)ccc1CCNC(=O)CC(N)c1ccc(C(=O)Nc2ccncc2)cc1` (stereo not given): the IC50 fell in the range of 50 to 500 nM.

`NC(CNC(=O)Cc1cccs1)c1ccc(C(=O)Nc2ccncc2)cc1` (stereo not given) had an IC50 of 50 to 500 nM.

Compound `CN(CC(N)c1ccc(C(=O)Nc2ccncc2)cc1)C(=O)Cc1c(F)cccc1Cl` (stereo not given) returned a 50% inhibitory concentration (IC50) of 500 to 5000 nM.

For the compound `NC(c1ccc(C(=O)Nc2ccncc2)cc1)C1CCCN1C(=O)Cc1ccc(Cl)c(Cl)c1` (stereo not given), the IC50 fell in the range of 500 to 5000 nM.

Regarding `NC(c1ccc(C(=O)Nc2ccncc2)cc1)C1CCCN1C(=O)C1(c2ccsc2)CC1` (stereo not given), the IC50 was in the range of 500 to 5000 nM.

`CS(=O)(=O)c1cccc(C(=O)NCC(N)c2ccc(C(=O)Nc3ccncc3)cc2)c1` (stereo not given) had a 50% inhibitory concentration (IC50) of 500 to 5000 nM.

With `NC(CC(=O)NCCc1ccc2c(c1)OCO2)c1ccc(C(=O)Nc2ccncc2)cc1` (stereo not given), the IC50 lay within 50 to 500 nM.

The compound `NC(CC(=O)NCc1ccccc1C(F)(F)F)c1ccc(C(=O)Nc2ccncc2)cc1` (stereo not given) displayed a concentration for half-maximal inhibition (IC50) of 50 to 500 nM.

As to `NC(CNC(=O)C1(c2ccc(F)cc2F)CC1)c1ccc(C(=O)Nc2ccncc2)cc1` (stereo not given), the IC50 fell in the range of 50 to 500 nM.

In the case of `NC(CC(=O)NCc1ccc(F)cc1Cl)c1ccc(C(=O)Nc2ccncc2)cc1` (stereo not given), the IC50 was in the range of 50 to 500 nM.

Consider `N[C@H](CC(=O)N[C@@H]1CCCc2ccccc21)c1ccc(C(=O)Nc2ccncc2)cc1`, for which the IC50 is under 50 nM.

Turning to `Cc1ccc(C)c(CC(=O)NCC(N)c2ccc(C(=O)Nc3ccncc3)cc2)c1` (stereo not given), the IC50 lay in the range of 500 to 5000 nM.

The compound `NC(CNC(=O)CCc1ccc(F)cc1)c1ccc(C(=O)Nc2ccncc2)cc1` (stereo not given) registered an IC50 of 50 to 500 nM.

`Cc1ccc(C)c(CNC(=O)CC(N)c2ccc(C(=O)Nc3ccncc3)cc2)c1` (stereo not given) returned an IC50 of 50 to 500 nM.

`CS(=O)(=O)NCCNC(=O)CC(N)c1ccc(C(=O)Nc2ccncc2)cc1` (stereo not given): the IC50 lay in the range of 50 to 500 nM.

`NC(CNC(=O)c1ccc2[nH]nnc2c1)c1ccc(C(=O)Nc2ccncc2)cc1` (stereo not given) registered a 50% inhibitory concentration (IC50) of 500 to 5000 nM.

`NC(CNC(=O)c1cccc(Cn2cccn2)c1)c1ccc(C(=O)Nc2ccncc2)cc1` (stereo not given): the half-inhibitory concentration (IC50) is 500 to 5000 nM.

Turning to `CN(CC(N)c1ccc(C(=O)Nc2ccncc2)cc1)C(=O)Cc1ccc(F)cc1Cl` (stereo not given), the IC50 was in the range of 500 to 5000 nM.

For `N[C@@H](CC(=O)N[C@H]1CCCc2ccccc21)c1ccc(C(=O)Nc2ccncc2)cc1`, the IC50 lay in the range of 50 to 500 nM.

The compound `NC(CNC(=O)c1ccc(Cl)cc1)c1ccc(C(=O)Nc2ccncc2)cc1` (stereo not given) returned an IC50 of 500 to 5000 nM.

The compound `CC(C)(C(=O)N1CCCC1C(N)c1ccc(C(=O)Nc2ccncc2)cc1)c1ccsc1` (stereo not given) showed an IC50 of 500 to 5000 nM.

As for `NC(CNC(=O)Cc1ccc(F)c(F)c1)c1ccc(C(=O)Nc2ccncc2)cc1` (stereo not given), the IC50 lay in the range of 50 to 500 nM.

`NC(c1ccc(C(=O)Nc2ccncc2)cc1)C1CCCN1C(=O)Cc1cccc(Cl)c1` (stereo not given) showed an IC50 of 500 to 5000 nM.

Compound `NC(CNC(=O)Nc1ccc2ccccc2c1)c1ccc(C(=O)Nc2ccncc2)cc1` (stereo not given) gave an IC50 of 50 to 500 nM.

On to `CN(CC(N)c1ccc(C(=O)Nc2ccncc2)cc1)C(=O)Cc1csc(-c2ccccc2)n1` (stereo not given), for which the IC50 is 500 to 5000 nM.

`NC(CNC(=O)c1ccc(C(=O)c2ccccc2)cc1)c1ccc(C(=O)Nc2ccncc2)cc1` (stereo not given) displayed an IC50 of 500 to 5000 nM.

On to `NC(CNC(=O)Cc1c[nH]c2ccccc12)c1ccc(C(=O)Nc2ccncc2)cc1` (stereo not given), for which the IC50 was in the range of 50 to 500 nM.

The compound `NC(c1ccc(C(=O)Nc2ccncc2)cc1)C1CCCN1C(=O)Cc1ccc(C(F)(F)F)cc1` (stereo not given) returned an IC50 of 500 to 5000 nM.

`COc1cccc(CNC(=O)CC(N)c2ccc(C(=O)Nc3ccncc3)cc2)c1OC` (stereo not given) gave an IC50 of 50 to 500 nM.

`CN(CC(N)c1ccc(C(=O)Nc2ccncc2)cc1)C(=O)Cc1ccc(Cl)cc1` (stereo not given) came in with an IC50 of 500 to 5000 nM.

`NC(CNC(=O)Cc1ccc(-c2ccccc2)cc1)c1ccc(C(=O)Nc2ccncc2)cc1` (stereo not given) registered an IC50 of 500 to 5000 nM.

The compound `CN(CC(N)c1ccc(C(=O)Nc2ccncc2)cc1)C(=O)C1(c2ccc(F)c(F)c2)CCC1` (stereo not given) showed an IC50 of 500 to 5000 nM.

The compound `CC(C)(C(=O)N1CCCC1C(N)c1ccc(C(=O)Nc2ccncc2)cc1)c1ccc(Cl)cc1` (stereo not given) displayed an IC50 of 500 to 5000 nM.

Regarding `N[C@H](CC(=O)N[C@H]1COc2ccccc21)c1ccc(C(=O)Nc2ccncc2)cc1`, the half-inhibitory concentration (IC50) fell in the range of 50 to 500 nM.

Compound `NC(CC(=O)NCc1cccc(C(F)(F)F)c1)c1ccc(C(=O)Nc2ccncc2)cc1` (stereo not given) came in with an IC50 of 50 to 500 nM.

`CN(CC(N)c1ccc(C(=O)Nc2ccncc2)cc1)C(=O)C1(c2ccc(F)c(Cl)c2)CC1` (stereo not given) had an IC50 of 500 to 5000 nM.

Regarding `Cc1ncccc1C(=O)NCC(N)c1ccc(C(=O)Nc2ccncc2)cc1` (stereo not given), the IC50 lay within 500 to 5000 nM.
